Results on one compound are retold here after patent EP1268487B1, “TRICYCLIC PROTEIN KINASE INHIBITORS” (Wyeth, priority 2000, dated 2001).

Converted amounts (≈) assume the structure as drawn.

Assay [1] has as its target T1, Epidermal Growth Factor Receptor Kinase (EGF-R) (Homo sapiens, UniProt P00533).
T1 construct: containing the EGFR cDNA encoding amino acids 645 - 1186 preceded by Met-Ala-(His)6; Met-Ala-(His)6 (N); made in house; host or cells: Sf9 insect cells (baculovirus vHcEGFR52)
The experiment in a line: Inhibition of Epidermal Growth Factor Receptor Kinase (EGF-R) using recombinant enzyme. Format: biochemical. Here is the method:
Representative test compounds were evaluated for their ability to inhibit the phosphorylation of the tyrosine residue of a peptide substrate catalyzed by the enzyme epidermal growth factor receptor kinase. The peptide substrate (RR-SRC) has the sequence arg-arg-leu-ile-glu-asp-ala-glu-tyr-ala-ala-arg-gly. The enzyme used in this assay is the His-tagged cytoplasmic domain of EGFR. A recombinant baculovirus (vHcEGFR52) was constructed containing the EGFR cDNA encoding amino acids 645 - 1186 preceded by Met-Ala-(His)6. Sf9 cells in 100 mm plates were infected at an moi of 10 pfu/cell and cells were harvested 48 hours post infection. A cytoplasmic extract was prepared using 1% Triton X-100 and applied to Ni-NTA column. After washing the column with 20 mM imidazole, HcEGFR was eluted with 250 mM imidazole (in 50 mM Na2HPO4, pH 8.0, 300 mM NaCl). Fractions collected were dialyzed against 10 mM HEPES, pH 7.0, 50 mM NaCl, 10% glycerol, 1µg/mL antipain and leupeptin and 0.1 mM Pefabloc SC. The protein was frozen in dry ice/methanol and stored -70° C.
Test compounds were made into 10 mg/mL stock solutions in 100% dimethylsulfoxide (DMSO). Prior to experiment, stock solutions were diluted to 500 µM with 100% DMSO and then serially diluted to the desired concentration with HEPES buffer (30 mM HEPES pH 7.4).
For the enzyme reaction, 10 µL of each inhibitor (at various concentrations) were added to each well of a 96-well plate. To this was added 3 µL of enzyme (1:10 dilution in 10mM HEPES, pH 7.4 for final conc. of 1:120). This was allowed to sit for 10 minutes on ice and was followed by the addition of 5 µl peptide (80 uM final conc.), 10µl of 4X Buffer (Table A), 0.25 µL ^33P-ATP and 12 µL H2O. The reaction was allowed to run for 90 minutes at room temperature and was followed by spotting the entire volume on to precut P81 filter papers. The filter discs were washed 2X with 0.5% phosphoric acid and radioactivity was measured using a liquid scintillation counter. Table A
The inhibition data for representative compounds of the invention are shown below in TABLE 1. The IC50 is the concentration of test compound needed to reduce the total amount of phosphorylated substrate by 50%. The % inhibition of the test compound was determined for at least three different concentrations and the IC50 value was evaluated from the dose response curve. […] CPM(control) is in units of counts per minute and was a number expressing the amount of radiolabeled ATP (γ-^33P) incorporated into the RR-SRC peptide substrate by the enzyme after 90 minutes at room temperature in the absence of test compound as measured by liquid scintillation counting. The CPM values were corrected for the background counts produced by ATP in the absence of the enzymatic reaction. Where it was possible to determine an IC50 value, this is reported in TABLE 1 otherwise the % inhibition at 0.5 µM concentration of test compound is shown in TABLE 1.

In the next assay the test system is SKBR3. The assay can be described thus: Inhibition of cancer cell growth as measured by cell number (Sulforhodamine B). Format: cell-based. Conditions: Homo sapiens, SK-BR-3; 48 hours exposure. How it is done: (§1) Human tumor cell lines were plated in 96-well plates (250 µl/well, 1-6 x 10^4 cells/ml) in RPMI 1640 medium, containing 5% FBS (Fetal Bovine Serum). […] After 48 hours exposure to test compounds, cells were fixed with trichloroacetic acid, and stained with Sulforhodamine B. After washing with trichloroacetic acid, bound dye was solubilized in 10 mM Tris base and optical density was determined using a plate reader. Under conditions of the assay the optical density is proportional to the number of cells in the well. IC50s (concentrations causing 50% inhibition of cell growth) were determined from the growth inhibition plots. The test procedure is described in details by Philip Skehan et. al, J.Natl. Canc. Inst., 82, 1107-1112 (1990). […] Information about some of the cell lines used in these test procedures is available from the American Type Tissue Collection: Cell Lines and Hybridomas, 1994 Reference Guide, 8th Edition. The Her2Neu cell line is a 3T3 line that has been transfected with Her2 receptor kinase.

In a further assay the test system is SW620. Described as above. Format: cell-based. Conditions: Homo sapiens, SW-620; 48 hours exposure. Here is the method: as §1
Another assay deals with MDA435. Described as above. As to conditions: Homo sapiens, 48 hours exposure. Format: cell-based. Here is the method: as §1
The next assay has as its system 3T3. Described as above. It counts as cell-based. As to conditions: Mus musculus, NIH3T3; 48 hours exposure. Here is the method:
as §1

The next assay concerns Her2Neu. Described as above. Format: cell-based. As to conditions: 48 hours exposure; 3T3 line transfected with Her2 receptor kinase. Here is the method:
as §1

In another assay the test system is A431. The description is as above. As to conditions: Homo sapiens, A-431; 48 hours exposure. It counts as cell-based. How it is done:
as §1

T1 sequence (P00533 669-1210): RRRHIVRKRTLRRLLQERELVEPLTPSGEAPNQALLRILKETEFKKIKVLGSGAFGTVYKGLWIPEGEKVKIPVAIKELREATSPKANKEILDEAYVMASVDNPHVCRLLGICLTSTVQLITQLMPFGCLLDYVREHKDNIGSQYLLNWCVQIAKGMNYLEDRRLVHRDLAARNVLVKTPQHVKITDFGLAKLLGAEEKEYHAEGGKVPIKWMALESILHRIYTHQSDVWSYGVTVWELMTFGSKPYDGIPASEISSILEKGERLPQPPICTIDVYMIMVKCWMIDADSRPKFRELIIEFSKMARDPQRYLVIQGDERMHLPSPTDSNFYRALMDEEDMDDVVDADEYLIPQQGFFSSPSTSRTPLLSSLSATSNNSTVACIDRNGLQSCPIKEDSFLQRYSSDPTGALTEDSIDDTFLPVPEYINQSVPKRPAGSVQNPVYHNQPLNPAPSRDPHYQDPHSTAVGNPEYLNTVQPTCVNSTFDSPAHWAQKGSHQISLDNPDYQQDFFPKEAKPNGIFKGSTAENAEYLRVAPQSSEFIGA

In the case of `N#Cc1cnc2cc3c(cc2c1Nc1ccc(F)c(Cl)c1)NCCO3` [Example 7, 9-(3-Chloro-4-fluoroanilino)-2,3-dihydro-1H-[1,4]oxazino[3,2-g]quinoline-8-carbonitrile], the inhibition at 0.5 µM in assay [1] (0.5 µM concentration of test compound) was determined as 35.5%. Also, the concentration for half-maximal inhibition (IC50) turned out to be 1000 nM in assay [1] (recombinant enzyme); 0.968 µg/mL (≈ 2.73 µM) with SKBR3; 2.9 µg/mL (≈ 8.17 µM) in the assay on SW620; 1.43 µg/mL (≈ 4.03 µM) in the assay with MDA435; 3.02 µg/mL (≈ 8.51 µM) in the assay with 3T3; 3.9 µg/mL (≈ 11 µM) in the assay on Her2Neu. In the assay on A431, this compound came in with an IC50 of 0.527 µg/mL (≈ 1.49 µM).

For orientation: inhibition means the change of the read-out against control, counted positive when it falls. By IC50 is commonly meant the concentration needed to halve the response being measured.
